Tests used:
PKD1^FLEX-CreER2 = test: Tamoxifen activation of PKD1^FLEX-CreER2 cassette in LLC-PK1 cells in vitro; format: cell-based, pig; conditions: after tamoxifen treatment, LLC-PK1 targeted cells, expected
Procedure: Testing of PKD1^FLEX-CreER2 is conducted using the immortalized pig kidney cell line, LLC-PK1. Prior to conducting studies with the cassette integrated into cells, the efficacy of Cre recombination is optimized in transient transfections +/− tamoxifen and measure recombination by qPCR.
In vitro testing in the LLC-PK1, PKD1^FLEX-CreER2 targeted cells: The model cells developed above are treated in triplicate with 3 dosages of tamoxifen, and compared to non-treated cells. Percent recombination of the PKD1^FLEX-CreER2 cassette is analyzed visually for the loss of EGFP using FACS and molecularly by quantitative PCR for molecular quantification of recombination. Splicing of the PKD1^FLEX-CreER2 cassette is analyzed before and after recombination by RT-PCR from exon 14 to exon 16, followed by Sanger sequencing and qRT-PCR using primers spanning exon junctions of E14-15 and E15-16 respectively. Finally, induced and non-induced populations are compared at the protein level by western blotting.

porcine PKHD1 [1] = test: Cytoplasmic injection of parthenogenetic pig embryos, single blastocyst RFLP assay and sequencing; format: cell-based; conditions: for RFLP In Embryos: pig embryos, with HDR template; for NHEJ n (%): R3229Q introgression
Procedure: The best performing combinations of TALENs and CRISPRs identified above, are evaluated in vitro by injection of in vitro matured (IVM) parthenogenetic pig embryos (FIG. 9C). […] In a small pilot study targeting porcine PDX1, 80% of alleles injected with a TALEN dosage of 40 ng/μl were able to be mutated, with nearly half of those directed to a particular edit by a homology template (FIG. 11B). FIG. 11A illustrates the steps required in production of in vitro matured pig embryos for microinjection. FIG. 11B illustrates the difference in percent success which using different concentrations of editing reagents for the PDX1 gene. A similar dosage escalation study is used to optimize for T36M introgression that balances survival of embryos in vitro with editing efficiency.
HDR efficiency was inversely associated with Cas9 dosage (50 vs 80% HDR) from highest to lowest concentration (Table 12 and FIG. 13A) likely a result of hyperactive cutting in the high concentration group. The fidelity of HDR events was further confirmed by sequencing (FIG. 13B) which confirms that the wild type triplet “ACA” coding, for threonine has been converted to “ATG” coding for methionine (FIG. 9A) using the template HDR sequence. Overall, condition C3, 25 ng/ul of Cas9, 12.5 ng/ul of gRNA and 50 ng/μl of ssHDR, was optimal for both blastocyst formation rate and HDR activity. If this site proves problematic, alternative missense mutations commonly observed in more than one family of ARPKD patients, such as I3553T, I222V, P805L or R3229Q are introgressed.
By the same process as Example 8, R3229Q was engineered into the PKHD1 gene. R3229Q is the equivalent mutation to R3240Q in humans (FIG. 16A), which in a homozygous state causes moderate ARPKD. Also, as noted previously, the annotation of PKHD1 has changed since initial contigs placed R3240Q in exon 58 versus exon 65. Also, R3240Q in humans, maps to different residue numbers in pigs based on transcript selected. […] Injections into parthenogenetic embryos were performed as before, with two conditions using a ssODN as the homology template ssPKHD1 65.1 3240 R to Q (Table 10); C1 (100/50/50) (Cas9 mRNA/gRNA65.1/homology template, all ng/μl) and C3 (25/12.5/50) (Cas9 mRNA/gRNA65.1/homology template, all ng/μl) (Table 9). […] HDR was also prevalent in the C3 condition (75%) whereas total mutation rate (indels+HDR alleles) was 100 and 95% for C1 and C3 respectively. […] Blastocyst 3.19 is homozygous for R3229Q while 3.12 has one HDR allele and one indel allele.

porcine PKHD1 [2] = test: Injection of in vivo produced porcine embryos, genotype of born piglets; design: species or system pig; conditions: 22 piglets, litters 115 and 116, condition C3
Procedure: Founder animals for ARPKD were produced using the process of Example 8 with minor changes. The T36M reagents (ssPKHD1 CRISPR 3.1 and template ssPKHD1 3.1 36 T to M) were injected into in vivo produced porcine embryos at the 1 or 2 cell stage. Condition C3 was used for injection and the 60 resulting embryos were split equally between to synchronized recipients. A total of 22 piglets were born, 14 from one surrogate (litter ID 115) and 8 from the other (litter ID 116). Newborn piglets were visually assessed for fitness and four, 115-1, 115-2, 115-3 and 115-8 were reluctant to suckle from their mothers and had visible abdominal distension (Table 14). […] Each of the remaining piglets was analyzed for a visible phenotype at 20 days of age (Table 14). Genotype of the piglet was a strong indicator of disease severity as 115-1, 115-2, 115-3 and 115-8 are predicted to have null mutations on each allele while mild cases had some combination of T36M mutation or single allele mutations (Table 14). Overall, ˜55% of offspring were mutant with 5 showing T36M mutations (Table 15). This rate is lower than observed above. A key difference is the embryos source. Parthenogenetic embryos were used in previous experiments where timing of activation is tightly controlled. In contrast, this experiment used in vivo produced embryos (bred sows, embryos collected ˜18 hours post fertilization) where timing is variable. However, the hypothesis that a variety of disease alleles and severities could be produced in a single litter was confirmed.

porcine PKHD1 [3] = test: Surveyor assay (cutting) and RFLP analysis (HDR) in transfected pig fibroblasts; format: cell-based; conditions: for activity among the TALENs and CRISPR gRNAs tested for the target: comparison of reagents developed for the same target; for cutting, In Fibroblast Cells Incubated at 30° / RFLP, In Fibroblast Cells Incubated at 30° / cutting, In Fibroblast Cells Incubated at 37° / RFLP, In Fibroblast Cells Incubated at 37°: pig fibroblasts; for cutting, In Fibroblast Cells Incubated at 30° / RFLP, In Fibroblast Cells Incubated at 30°: 30 degrees C; for cutting, In Fibroblast Cells Incubated at 30° / cutting, In Fibroblast Cells Incubated at 37°: three days recovery, Surveyor assay; for RFLP, In Fibroblast Cells Incubated at 30° / RFLP, In Fibroblast Cells Incubated at 37°: with HDR template, RFLP assay; for cutting, In Fibroblast Cells Incubated at 37° / RFLP, In Fibroblast Cells Incubated at 37°: 37 degrees C
Description: FIG. 12A, FIG. 12B: T36M introgression in cells. […] The region is highly conserved and threonine acid at position 36 in humans corresponds to residue 36 in pigs. Threonine acid 36 is identified in pig genomic DNA sequence, and […] (maroon arrow) are designed to cleave near T36. FIG. 12A also discloses SEQ ID NO: 118. […] It should be noted that position 3553 in pigs is a Valine residue and not pathogenic; henceforth this mutation will be referred to as either I3553T or V3553T. The cells were recovered for three days at 30 and 37 degrees C. prior to quantification of activity by the Surveyor assay and RFLP analysis with the Nsp1 restriction enzyme. The arrowheads depict the expected size of cleavage products for the Surveyor assay or RFLP assay.
A number of quality sites for TALENs and CRISPRs are ideally positioned for HDR mediated introgression the T36M mutation (Table 7, Table 8, Table 9). The assembled reagents are tested in pig fetal fibroblasts and embryos using standard operating procedures (SOPs) (FIG. 9B). Using these methods, hundreds of loci in pig and cattle have been successfully targeted, with efficiencies ranging from 5-75% in cultured cells.
For introgression of T36M into the porcine genome, two CRISPR Cas9 gRNAs and TALENs were tested in pig fibroblasts and embryos to optimize conditions (FIG. 12A, FIG. 12B, Table 7, Table 8, Table 9).

[4] = C1 (100/50/50) ng/μl Cas9/gRNA/ssODN, T36M template
[5] = C2 (50/25/50) ng/μl Cas9/gRNA/ssODN, T36M template
[6] = C3 (25/12.5/50) ng/μl Cas9/gRNA/ssODN, T36M template

Molecule | RFLP In Embryos (porcine PKHD1 [1]) | activity among the TALENs and CRISPR gRNAs tested for the target (porcine PKHD1 [3]) | cutting, In Fibroblast Cells Incubated at 30° (porcine PKHD1 [3]) | RFLP, In Fibroblast Cells Incubated at 30° (porcine PKHD1 [3]) | cutting, In Fibroblast Cells Incubated at 37° (porcine PKHD1 [3]) | RFLP, In Fibroblast Cells Incubated at 37° (porcine PKHD1 [3]) | other results
CC/C(=C(\c1ccccc1)c1ccc(OCCN(C)C)cc1)c1ccccc1 [tamoxifen] | – | – | – | – | – | – | activation of the integrated PKD1^FLEX-CreER2 cassette (PKD1^FLEX-CreER2): > 80%
ssPKHD1 CRISPR 3.1: CRISPR guide RNA (SEQ ID NO: 103) targeting exon 3 of porcine PKHD1, used with Cas9 mRNA and T36M HDR template (guide GGATTACCGTGTTCTTCGATGG; chemistry not given here) | 80% RFLP | greatest activity in cells | 0% cutting | RFLP detected, too | 30.8% cutting | RFLP 44.7% | Mutated n (%) (porcine PKHD1 [1]; [4]): 17 (94.4%); NHEJ^− n (%) (porcine PKHD1 [1]; [4]): 7 (38.8%); HDR^+ n (%) (porcine PKHD1 [1]; [5]): 11 (55.0%); Mutated n (%) (porcine PKHD1 [1]; [5]): 19 (95.0%); NHEJ^− n (%) (porcine PKHD1 [1]; [5]): 8 (40.0%); Mutated n (%) (porcine PKHD1 [1]; [6]): 19 (95.0%); NHEJ^− n (%) (porcine PKHD1 [1]; [6]): 3 (15.0%); embryos mutated (porcine PKHD1 [1]; CRISPR/Cas9 dosage of 25-100 ng/μl): Up to 95%; blastocyst formation rate (toxicity by embryo development analysis) (porcine PKHD1 [1]; cytoplasmic injection with HDR oligo at C1, C2, C3, highest in C3): high in each group; Heterozygous T36M % (number) (porcine PKHD1 [2]): 9% (2/22); Homozygous T36M % (number) (porcine PKHD1 [2]): 13.6% (3/22); Wild type % (number) (porcine PKHD1 [2]): 45.5% (10/22); RFLP, In Fibroblast Cells Incubated at 37° (porcine PKHD1 [3]; listed as CRISPR 3.1): up to 44.7%
ssPKHD1 CRISPR 65.1: CRISPR guide RNA (SEQ ID NO: 105) for R3229Q (human R3240Q) introgression into porcine PKHD1 (guide GGGGTCGAGTTGGTATATTGTGG; chemistry not given here) | 89% | greatest activity | Cutting detected, too | 7.3% RFLP | Cutting detected, too | 11% RFLP | NHEJ n (%) (porcine PKHD1 [1]; C1 (100/50/50) ng/μl): 2 (10.5%); NHEJ n (%) (porcine PKHD1 [1]; C3 (25/12.5/50) ng/μl): 4 (15.0%)
ssPKHD1 CRISPR 3.2: CRISPR guide RNA (SEQ ID NO: 104) targeting exon 3 of porcine PKHD1 (guide GCAGCCTCGCAGGGGGAACATGG; chemistry not given here) | 0% RFLP | – | 0% cutting at 30 | RFLP detected, too | 0% cutting at 37 | RFLP detected, too | –

Reference: US20190183100A1, “ANIMAL MODELS FOR POLYCYSTIC KIDNEY DISEASE” (Recombinetics, Inc., priority 2017, published 2019)
